Results published in PubChem BioAssay AID248 (DTP/NCI, 2004).
Where “and” joins values, the source holds several entries; their conditions need not be identical. Identical values can stand only once. Inconclusive results and toxic doses are left out. No stated cut-off is given here; in the data, active means T/C of 150% or more; inactive means T/C below 125%.

Test system: L1210 leukemia ip in BDF1 mice, survival T/C
Assay: NCI In Vivo Anticancer Drug Screen. Data for tumor model L1210 Leukemia (intraperitoneal) in B6D2F1 (BDF1) mice
Conditions: endpoint: mean survival time, higher = longer survival
Outline: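 Mice bearing the transplanted tumor received compound or vehicle. Survival of the treated group was divided by that of the vehicle-treated control group to give the ratio.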

[1] = dose: 25.0 mg/kg/injection, schedule: Q04DX003 (ip), vehicle: saline
[2] = dose: 50.0 mg/kg/injection, schedule: Q04DX003 (ip), vehicle: saline
[3] = dose: 100.0 mg/kg/injection, schedule: Q04DX003 (ip), vehicle: saline
[4] = dose: 100.0 mg/kg/injection, schedule: Q04DX003 (ip), vehicle: Klucel (hydroxypropylcellulose) (HPC)

Measured: T/C

O=C(Nc1ccccc1CSc1nc2nc[nH]c(=O)c2[nH]1)c1ccc(S(=O)(=O)F)cc1
inactive: dose: 25.0 mg/kg/injection, schedule: Q01DX001 (ip), vehicle: Klucel (hydroxypropylcellulose) (HPC) 108 % of control | dose: 50.0 mg/kg/injection, schedule: Q01DX001 (ip), vehicle: Klucel (hydroxypropylcellulose) (HPC) 111 % of control | dose: 100.0 mg/kg/injection, schedule: Q01DX001 (ip), vehicle: Klucel (hydroxypropylcellulose) (HPC) 114 % of control

C=CC(=C)CCC=C(C)C
inactive: [1] 101 % of control | [2] 101 % of control | [3] 97 % of control | dose: 200.0 mg/kg/injection, schedule: Q04DX003 (ip), vehicle: saline 87 % of control | dose: 400.0 mg/kg/injection, schedule: Q04DX003 (ip), vehicle: saline 86 % of control

CC[N+](C)(CC)CCCN1C(=O)c2ccccc2S1(=O)=O
inactive: dose: 22.0 mg/kg/injection, schedule: Q01DX Z (ip), vehicle: methylcellulose (MC) 94 % of control | dose: 33.0 mg/kg/injection, schedule: Q01DX Z (ip), vehicle: methylcellulose (MC) 96 % of control | dose: 50.0 mg/kg/injection, schedule: Q01DX Z (ip), vehicle: methylcellulose (MC) 91 % of control

CCSCCOP(=S)(N(CC)CC)N(CC)CC
inactive: dose: 100.0 mg/kg/injection, schedule: Q04DX002 (ip), vehicle: saline with Tween-80 88 % of control | dose: 200.0 mg/kg/injection, schedule: Q04DX002 (ip), vehicle: saline with Tween-80 95 % of control | dose: 400.0 mg/kg/injection, schedule: Q04DX002 (ip), vehicle: saline with Tween-80 104 % of control

Cc1cccc(N=P(c2ccccc2)(c2ccccc2)c2ccccc2)c1
inactive: dose: 50.0 mg/kg/injection, schedule: Q01DX009 (ip), vehicle: Klucel (hydroxypropylcellulose) (HPC) 96 % of control | dose: 100.0 mg/kg/injection, schedule: Q01DX009 (ip), vehicle: Klucel (hydroxypropylcellulose) (HPC) 88 % of control | [4] 95 % of control | dose: 200.0 mg/kg/injection, schedule: Q04DX003 (ip), vehicle: Klucel (hydroxypropylcellulose) (HPC) 96 % of control

O=C(CCl)c1c(O)cc(O)cc1O
inactive: dose: 75.0 mg/kg/injection, schedule: Q01DX001 (ip), vehicle: other 106 % of control | dose: 150.0 mg/kg/injection, schedule: Q01DX001 (ip), vehicle: other 106 % of control | dose: 300.0 mg/kg/injection, schedule: Q01DX001 (ip), vehicle: other 92 % of control

CCn1c(C)nc2cc(N=Cc3ccc(N(CCCl)CCCl)cc3F)ccc21
inactive: dose: 100.0 mg/kg/injection, schedule: Q04DX002 (ip), vehicle: Klucel (hydroxypropylcellulose) (HPC) 95 % of control | dose: 200.0 mg/kg/injection, schedule: Q04DX002 (ip), vehicle: Klucel (hydroxypropylcellulose) (HPC) 98 % of control | dose: 400.0 mg/kg/injection, schedule: Q04DX002 (ip), vehicle: Klucel (hydroxypropylcellulose) (HPC) 91 % of control

Cc1cc(C)nc(NN=C2CC(C)(C)N(O)C(C)(C)C2)n1
inactive: [1] 96 % of control | [2] 98 % of control | [3] 102 % of control

COC(=O)c1cncn1C(C)c1cccc2ccccc12 (stereo not drawn)
inactive: dose: 25.0 mg/kg/injection, schedule: Q04DX003 (ip), vehicle: Klucel (hydroxypropylcellulose) (HPC) 96 % of control | dose: 50.0 mg/kg/injection, schedule: Q04DX003 (ip), vehicle: Klucel (hydroxypropylcellulose) (HPC) 102 % of control | [4] 101 % of control and 103 % of control

CC(=O)OC1C=C2CCC3C(CC(=O)C4(C)C3CC3OC34C(C)=O)C2(C)CC1 (stereo not drawn)
inactive: dose: 12.5 mg/kg/injection, schedule: Q04DX002 (ip), vehicle: saline 98 % of control | dose: 25.0 mg/kg/injection, schedule: Q04DX002 (ip), vehicle: saline 102 % of control | dose: 50.0 mg/kg/injection, schedule: Q04DX002 (ip), vehicle: saline 109 % of control
